Laboratory results taken from article PMC11240139, “Exploring the antitumor potential of novel quinoline derivatives via tubulin polymerization inhibition in breast cancer; design, synthesis and molecular docking” (RSC Advances, 2024).

Columns and labels:
Assay in all cases: NCI-60 SRB cytotoxicity screen
Format in all cases: cell-based
MOLT-4 (leukemia) = conditions: Homo sapiens; MOLT-4, single dose 10 μM; read-out: growth inhibition (GI%)
SR (leukemia) = conditions: single dose 10 μM, read-out: growth inhibition (GI%)
[1] = system: NCI-H23 (non-small cell lung cancer); conditions: Homo sapiens; NCI-H23, single dose 10 μM; read-out: growth inhibition (GI%)
[2] = system: NCI-H460 (non-small cell lung cancer); conditions: Homo sapiens; NCI-H460, single dose 10 μM; read-out: growth inhibition (GI%)
[3] = system: NCI-H522 (non-small cell lung cancer); conditions: Homo sapiens; NCI-H522, single dose 10 μM; read-out: growth inhibition (GI%)
HT29 (colon cancer) = conditions: Homo sapiens, HT-29; HT29, single dose 10 μM; read-out: growth inhibition (GI%)
KM12 (colon cancer) = conditions: Homo sapiens; KM12, single dose 10 μM; read-out: growth inhibition (GI%)
SW-620 (colon cancer) = conditions: Homo sapiens; SW-620, single dose 10 μM; read-out: growth inhibition (GI%)
SF-539 (CNS cancer) = conditions: Homo sapiens; SF-539, single dose 10 μM; read-out: growth inhibition (GI%)
SNB-19 (CNS cancer) = conditions: Homo sapiens; SNB-19, single dose 10 μM; read-out: growth inhibition (GI%)
LOX IMVI (melanoma) = conditions: Homo sapiens, single dose 10 μM, read-out: growth inhibition (GI%)
MALME-3M (melanoma) = conditions: Homo sapiens, single dose 10 μM, read-out: growth inhibition (GI%)
M14 (melanoma) = conditions: Homo sapiens; M14, single dose 10 μM; read-out: growth inhibition (GI%)
MDA-MB-435 (melanoma) = conditions: Homo sapiens, MDA-MB-435, read-out: growth inhibition (GI%)
SK-MEL-28 (melanoma) = conditions: Homo sapiens; SK-MEL-28, single dose 10 μM; read-out: growth inhibition (GI%)
SK-MEL-5 (melanoma) = conditions: Homo sapiens; SK-MEL-5, single dose 10 μM; read-out: growth inhibition (GI%)
IGROV1 (ovarian cancer) = conditions: Homo sapiens, IGROV-1; IGROV1, single dose 10 μM; read-out: growth inhibition (GI%)
[4] = system: NCI/ADR-RES (ovarian cancer); conditions: Homo sapiens, single dose 10 μM, read-out: growth inhibition (GI%)
786-0 (renal cancer) = conditions: Homo sapiens; 786-0, single dose 10 μM; read-out: growth inhibition (GI%)
A498 (renal cancer) = conditions: Homo sapiens; A498, single dose 10 μM; read-out: growth inhibition (GI%)
ACHN (renal cancer) = conditions: Homo sapiens, single dose 10 μM, read-out: growth inhibition (GI%)
CAKI-1 (renal cancer) = conditions: Homo sapiens; CAKI-1, single dose 10 μM; read-out: growth inhibition (GI%)
SN12C (renal cancer) = conditions: Homo sapiens, single dose 10 μM, read-out: growth inhibition (GI%)
TK-10 (renal cancer) = conditions: Homo sapiens; TK-10, single dose 10 μM; read-out: growth inhibition (GI%)
MCF7 (breast cancer) = conditions: Homo sapiens; MCF7, single dose 10 μM; read-out: growth inhibition (GI%)
BT-549 (breast cancer) = conditions: Homo sapiens; BT-549, single dose 10 μM; read-out: growth inhibition (GI%)
[5] = system: MDA-MB-468 (breast cancer); conditions: Homo sapiens; MDA-MB-468, single dose 10 μM; read-out: growth inhibition (GI%)
In short: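 NCI-60 single-dose (10^−5 M) screen in MDA-MB-468 with SRB protein-stain read-out after 48 h exposure; cells TCA-fixed and absorbance read at 540 nm. Reported as GI%, with compounds meeting NCI activity criteria then run at five doses (0.01–100 μM).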

## CCc1cccc2cc(C=CC(=O)c3cc(OC)c(OC)c(OC)c3)c(Cl)nc12 [Compound 3c, 3-(2-Chloro-8-ethylquinolin-3-yl)-1-(3,4,5-trimethoxyphenyl)prop-2-en-1-one]
MOLT-4 (leukemia)
  inhibition at 10 µM: 49.9%
SR (leukemia)
  inhibition at 10 µM: 61.5%
[1]
  inhibition at 10 µM: 27.4%
[2]
  inhibition at 10 µM: 18.4%
[3]
  inhibition at 10 µM: 80.7%
HT29 (colon cancer)
  inhibition at 10 µM: 77.4%
KM12 (colon cancer)
  inhibition at 10 µM: 80.7%
SW-620 (colon cancer)
  inhibition at 10 µM: 65.4%
SF-539 (CNS cancer)
  inhibition at 10 µM: > 100%
SNB-19 (CNS cancer)
  inhibition at 10 µM: 66.4%
LOX IMVI (melanoma)
  inhibition at 10 µM: 72%
MALME-3M (melanoma)
  inhibition at 10 µM: 14.8%
M14 (melanoma)
  inhibition at 10 µM: 31.9%
MDA-MB-435 (melanoma)
  inhibition at 10 µM: 59.2%
SK-MEL-28 (melanoma)
  inhibition at 10 µM: 15%
SK-MEL-5 (melanoma)
  inhibition at 10 µM: 39.9%
IGROV1 (ovarian cancer)
  inhibition at 10 µM: < 10%
[4]
  inhibition at 10 µM: 67.6%
786-0 (renal cancer)
  inhibition at 10 µM: 41.7%
A498 (renal cancer)
  inhibition at 10 µM: < 10%
ACHN (renal cancer)
  inhibition at 10 µM: 32%
CAKI-1 (renal cancer)
  inhibition at 10 µM: 38.7%
SN12C (renal cancer)
  inhibition at 10 µM: 42.3%
TK-10 (renal cancer)
  inhibition at 10 µM: < 10%
MCF7 (breast cancer)
  inhibition at 10 µM: 70.9%
BT-549 (breast cancer)
  inhibition at 10 µM: 76.1%
[5]
  inhibition at 10 µM: 61.1%

## CCc1cccc2cc(C=CC(=O)c3ccc(F)cc3)c(Cl)nc12 [Compound 3d, 3-(2-Chloro-8-ethylquinolin-3-yl)-1-(4-fluorophenyl)prop-2-en-1-one]
MOLT-4 (leukemia)
  inhibition at 10 µM: < 10%
SR (leukemia)
  inhibition at 10 µM: < 10%
[1]
  inhibition at 10 µM: < 10%
[2]
  inhibition at 10 µM: < 10%
[3]
  inhibition at 10 µM: < 10%
HT29 (colon cancer)
  inhibition at 10 µM: < 10%
KM12 (colon cancer)
  inhibition at 10 µM: < 10%
SW-620 (colon cancer)
  inhibition at 10 µM: < 10%
SF-539 (CNS cancer)
  inhibition at 10 µM: 11%
SNB-19 (CNS cancer)
  inhibition at 10 µM: < 10%
LOX IMVI (melanoma)
  inhibition at 10 µM: < 10%
MALME-3M (melanoma)
  inhibition at 10 µM: < 10%
M14 (melanoma)
  inhibition at 10 µM: < 10%
MDA-MB-435 (melanoma)
  inhibition at 10 µM: < 10%
SK-MEL-28 (melanoma)
  inhibition at 10 µM: < 10%
SK-MEL-5 (melanoma)
  inhibition at 10 µM: < 10%
IGROV1 (ovarian cancer)
  inhibition at 10 µM: < 10%
[4]
  inhibition at 10 µM: < 10%
786-0 (renal cancer)
  inhibition at 10 µM: < 10%
A498 (renal cancer)
  inhibition at 10 µM: < 10%
ACHN (renal cancer)
  inhibition at 10 µM: < 10%
CAKI-1 (renal cancer)
  inhibition at 10 µM: 11.8%
SN12C (renal cancer)
  inhibition at 10 µM: < 10%
TK-10 (renal cancer)
  inhibition at 10 µM: < 10%
MCF7 (breast cancer)
  inhibition at 10 µM: < 10%
BT-549 (breast cancer)
  inhibition at 10 µM: < 10%
[5]
  inhibition at 10 µM: < 10%
